Results: ChEMBL document CHEMBL1201862, “PubChem BioAssay data set” (2004)
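Following 48 hours of exposure in 96-well plates, responses at five concentrations were used to interpolate endpoints linearly. GI50 marks 50% less growth.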 Activity calls are given as the source filed them. Cut-off read from the data, not from the text of the source: active = GI50 up to about 1.1 µM and inactive = higher.

What was measured:
Experiment in all cases: NCI anticancer screen, dose series, 48 h
NCI/ADR-RES = test system: NCI/ADR-RES
OVCAR-8 = test system: OVCAR-8
NCI-H226 = test system: NCI-H226
T47D = test system: T47D
UACC-62 = test system: UACC-62
EKVX = test system: EKVX
KM12 = test system: KM12
SF-539 = test system: SF-539
SR = test system: SR
SK-MEL-28 = test system: SK-MEL-28
OVCAR-5 = test system: OVCAR-5
SN12C = test system: SN12C
UO-31 = test system: UO-31
UACC-257 = test system: UACC-257
HOP-62 = test system: HOP-62
ACHN = test system: ACHN
OVCAR-3 = test system: OVCAR-3
RPMI-8226 = test system: RPMI-8226
HL-60 = test system: HL-60
OVCAR-4 = test system: OVCAR-4
PC-3 = test system: PC-3
COLO 205 = test system: COLO 205
HOP-92 = test system: HOP-92
SK-OV-3 = test system: SK-OV-3
HCT-15 = test system: HCT-15
HT-29 = test system: HT-29
HCC 2998 = test system: HCC 2998
SF-295 = test system: SF-295
Malme-3M = test system: Malme-3M
NCI-H460 = test system: NCI-H460
NCI-H522 = test system: NCI-H522
DU-145 = test system: DU-145
IGROV-1 = test system: IGROV-1
SNB-19 = test system: SNB-19
M14 = test system: M14
CCRF-CEM = test system: CCRF-CEM
TK-10 = test system: TK-10
A549 = test system: A549
LOX IMVI = test system: LOX IMVI
U-251 = test system: U-251
786-0 = test system: 786-0
MCF7 = test system: MCF7
Hs-578T = test system: Hs-578T
SF-268 = test system: SF-268
MDA-MB-435 = test system: MDA-MB-435
MDA-N = test system: MDA-N
CAKI-1 = test system: CAKI-1
BT-549 = test system: BT-549
MOLT-4 = test system: MOLT-4
SK-MEL-2 = test system: SK-MEL-2
HCT-116 = test system: HCT-116
MDA-MB-231 = test system: MDA-MB-231
SK-MEL-5 = test system: SK-MEL-5
NCI-H23 = test system: NCI-H23
A498 = test system: A498
SW-620 = test system: SW-620
SNB-75 = test system: SNB-75
K562 = test system: K562
RXF 393 = test system: RXF 393

Measured: GI50

CC(=O)c1ccc(Nc2nc3ccccc3c3occc23)cc1
5.08 µM: HCT-15
inactive: NCI/ADR-RES 11.9 µM | OVCAR-8 32.5 µM | NCI-H226 17 µM | T47D 5.94 µM | UACC-62 10.7 µM | EKVX 15.9 µM | KM12 7.14 µM | SF-539 17.1 µM | SR 2.92 µM | SK-MEL-28 2.34 µM | OVCAR-5 36 µM | SN12C 31.9 µM | UO-31 20.4 µM | UACC-257 13.2 µM | HOP-62 12.4 µM | ACHN 11.1 µM | OVCAR-3 14.9 µM | RPMI-8226 5.48 µM | OVCAR-4 1.79 µM | PC-3 22.4 µM | COLO 205 8.99 µM | HOP-92 12.8 µM | SK-OV-3 18.4 µM | HT-29 4.16 µM | HCC 2998 6.89 µM | SF-295 6.31 µM | Malme-3M 23.3 µM | NCI-H460 4.71 µM | NCI-H522 2.88 µM | DU-145 16.6 µM | IGROV-1 9.06 µM | SNB-19 34.8 µM | M14 14.1 µM | CCRF-CEM 10.5 µM | TK-10 7.1 µM | A549 11.1 µM | LOX IMVI 9.57 µM | U-251 18.8 µM | 786-0 5.6 µM | MCF7 8.22 µM | Hs-578T 15.3 µM | SF-268 14.1 µM | MDA-MB-435 3.08 µM | MDA-N 6.98 µM | CAKI-1 3.26 µM | BT-549 19.8 µM | MOLT-4 1.85 µM | SK-MEL-2 14.6 µM | HCT-116 11.4 µM | MDA-MB-231 13.1 µM | SK-MEL-5 12.1 µM | NCI-H23 12.2 µM | A498 2.99 µM
active: HL-60 0.036 µM

c1ccc2c(c1)CCN1CCc3ccccc3C1C2 (centres undefined)
40.2 µM: HCT-15
inactive: NCI/ADR-RES 65.9 µM | OVCAR-8 81.1 µM | NCI-H226 23.6 µM | T47D > 100 µM | UACC-62 29.7 µM | EKVX 40.4 µM | SW-620 64.6 µM | KM12 52.1 µM | SF-539 20.5 µM | SR 47.8 µM | SK-MEL-28 59.6 µM | OVCAR-5 38.4 µM | SN12C 43.4 µM | UO-31 18.1 µM | UACC-257 62.4 µM | HOP-62 56.2 µM | ACHN 77.6 µM | OVCAR-3 99.1 µM | RPMI-8226 43 µM | HL-60 76.9 µM | OVCAR-4 > 100 µM | PC-3 43.7 µM | COLO 205 38 µM | HOP-92 31 µM | SK-OV-3 64 µM | HT-29 28.2 µM | HCC 2998 31.4 µM | SF-295 26.9 µM | Malme-3M > 100 µM | NCI-H460 44.6 µM | NCI-H522 51.9 µM | DU-145 > 100 µM | IGROV-1 48 µM | SNB-19 82.8 µM | M14 23.1 µM | CCRF-CEM 58.7 µM | TK-10 59.6 µM | A549 35.8 µM | LOX IMVI 35.1 µM | U-251 38.4 µM | 786-0 25.1 µM | MCF7 > 100 µM | Hs-578T 68.5 µM | SF-268 32.2 µM | MDA-MB-435 33 µM | MDA-N 12.4 µM | CAKI-1 47.1 µM | BT-549 80.7 µM | SNB-75 36.4 µM | MOLT-4 40.4 µM | SK-MEL-2 51.2 µM | HCT-116 17.5 µM | MDA-MB-231 42.3 µM | SK-MEL-5 17.7 µM | NCI-H23 59.7 µM | K562 31.2 µM | A498 > 100 µM

CC1(C)C2CC(=O)C1(C)C(OCc1ccccc1)C2 (centres undefined)
26.8 µM: HCT-15
inactive: NCI/ADR-RES 28.6 µM | OVCAR-8 > 100 µM | NCI-H226 > 100 µM | T47D 40.4 µM | UACC-62 62.5 µM | EKVX > 100 µM | SW-620 29.6 µM | KM12 60.8 µM | SF-539 > 100 µM | SR 25.1 µM | SK-MEL-28 94.2 µM | OVCAR-5 29.4 µM | SN12C 36.6 µM | UO-31 62.7 µM | UACC-257 74 µM | HOP-62 86.1 µM | ACHN > 100 µM | OVCAR-3 62.7 µM | RPMI-8226 27.7 µM | HL-60 24.4 µM | PC-3 34.4 µM | COLO 205 29.6 µM | SK-OV-3 54.8 µM | HT-29 40.6 µM | HCC 2998 59.8 µM | SF-295 68.7 µM | Malme-3M 32.9 µM | NCI-H460 33.3 µM | NCI-H522 22.2 µM | DU-145 > 100 µM | IGROV-1 > 100 µM | SNB-19 88.3 µM | M14 24.8 µM | CCRF-CEM 26.1 µM | TK-10 23.4 µM | A549 74.3 µM | LOX IMVI 22.1 µM | U-251 48.3 µM | 786-0 70 µM | MCF7 64.7 µM | Hs-578T 22 µM | SF-268 > 100 µM | MDA-MB-435 47 µM | MDA-N 47.3 µM | CAKI-1 40.6 µM | BT-549 54.6 µM | SNB-75 34.2 µM | MOLT-4 16.3 µM | SK-MEL-2 > 100 µM | HCT-116 25.1 µM | MDA-MB-231 44 µM | SK-MEL-5 26.3 µM | NCI-H23 27.2 µM | K562 22.2 µM | A498 > 100 µM

COC(=O)CCc1cc(OC)c2oc(-c3ccc(OC)c(OC)c3)c(CO)c2c1
> 100 µM: HCT-15
inactive: NCI/ADR-RES > 100 µM | OVCAR-8 > 100 µM | NCI-H226 > 100 µM | T47D 86.7 µM | UACC-62 > 100 µM | EKVX > 100 µM | SW-620 > 100 µM | KM12 > 100 µM | SF-539 > 100 µM | SR 56 µM | SK-MEL-28 > 100 µM | OVCAR-5 > 100 µM | SN12C > 100 µM | UO-31 > 100 µM | UACC-257 > 100 µM | HOP-62 > 100 µM | ACHN > 100 µM | OVCAR-3 > 100 µM | RPMI-8226 99.5 µM | HL-60 > 100 µM | OVCAR-4 > 100 µM | PC-3 > 100 µM | COLO 205 > 100 µM | HOP-92 > 100 µM | SK-OV-3 > 100 µM | HT-29 > 100 µM | HCC 2998 1.7 µM | SF-295 > 100 µM | Malme-3M > 100 µM | NCI-H460 > 100 µM | NCI-H522 > 100 µM | DU-145 > 100 µM | IGROV-1 > 100 µM | SNB-19 > 100 µM | M14 > 100 µM | CCRF-CEM > 100 µM | TK-10 > 100 µM | A549 > 100 µM | LOX IMVI > 100 µM | U-251 > 100 µM | 786-0 > 100 µM | MCF7 > 100 µM | Hs-578T > 100 µM | SF-268 > 100 µM | MDA-MB-435 > 100 µM | MDA-N > 100 µM | CAKI-1 > 100 µM | BT-549 > 100 µM | MOLT-4 95.5 µM | SK-MEL-2 65 µM | HCT-116 > 100 µM | MDA-MB-231 > 100 µM | SK-MEL-5 > 100 µM | NCI-H23 > 100 µM | K562 > 100 µM | A498 > 100 µM

Cc1nc(N)nc(S)c1CCCNc1ccccc1
> 100 µM: HCT-15
inactive: NCI/ADR-RES > 100 µM | OVCAR-8 20.5 µM | NCI-H226 > 100 µM | T47D 20.4 µM | UACC-62 78.2 µM | EKVX 60 µM | SW-620 > 100 µM | KM12 76.7 µM | SF-539 95.7 µM | SR 3.6 µM | SK-MEL-28 > 100 µM | RXF 393 > 100 µM | OVCAR-5 > 100 µM | SN12C 69.7 µM | UO-31 59.3 µM | UACC-257 26.9 µM | HOP-62 > 100 µM | ACHN 90.2 µM | OVCAR-3 > 100 µM | RPMI-8226 27.2 µM | HL-60 50 µM | OVCAR-4 > 100 µM | PC-3 61.2 µM | COLO 205 23.5 µM | HOP-92 > 100 µM | SK-OV-3 > 100 µM | HT-29 68.7 µM | SF-295 56.4 µM | Malme-3M 35.6 µM | NCI-H460 35 µM | NCI-H522 34.4 µM | DU-145 76.2 µM | IGROV-1 > 100 µM | SNB-19 89.7 µM | M14 52.4 µM | CCRF-CEM 28 µM | TK-10 63.8 µM | A549 52.2 µM | LOX IMVI 54.5 µM | U-251 68.9 µM | 786-0 > 100 µM | MCF7 38 µM | Hs-578T > 100 µM | SF-268 62.5 µM | MDA-MB-435 74 µM | MDA-N 52 µM | CAKI-1 > 100 µM | BT-549 70 µM | SNB-75 > 100 µM | MOLT-4 3.21 µM | SK-MEL-2 60.1 µM | HCT-116 79.6 µM | MDA-MB-231 > 100 µM | SK-MEL-5 27.5 µM | NCI-H23 88.5 µM | K562 2.36 µM | A498 26.1 µM
